The text below walks through data of patent publication US6369109B1, “Betulinic acid and derivatives thereof useful for the treatment of neuroectodermal tumor” (Deutsches Krebsforschungszentrum Stiftung des Offentlichen …, priority 1998, dated 2002).

Assay [1] deals with mitochondria isolated from SHEP cells. The experiment in a line: Mitochondrial membrane potential of isolated mitochondria (DiOC6(3)). It is filed as biochemical, human. To be noted: mitochondria from wild type or vector-only SHEP cells; 10 μg/ml betulinic acid, 30 min; FIG. 7, 12D. As for the experimental part:
For isolation of mitochondria, cells (3×10^5 per sample) were washed twice with ice-cold PBS and resuspended with five volumes of buffer A (50 mM Tris, 1 mM EGTA, 5 mM 2-mercaproethanol, 0.2% BSA, 10 mM KH2PO4, pH 7.6, 0.4 M sucrose) and allowed to swell on ice for 20 min. Cells were homogenized with 30 strokes of a Teflon homogenizer and centrifuged at 10000 g for 10 min at 4° C. The resulting pellets were resuspended in buffer B (10 mM KH2PO4, pH 7.2, […] mannitol, 0.1% BSA). Mitochondria were separated by sucrose gradient (lower layer: 1.6 M sucrose, 10 mM KH2PO4, pH 7.5, 0.1% BSA; upper layer: 1.2 M sucrose, 10 mM KH2PO4, pH 7.5, 0.1% BSA). Interphases containing mitochondria were washed with buffer B at 18000 g for 10 min at 4° C. and the resulting mitochondrial pellets were resuspended in buffer B. For preparation of cytosolic extracts, cells (1×10^8 per sample) were washed twice with ice-cold PBS, resuspended with one volume of buffer A and allowed to swell on ice for 20 min. Cells were homogenized with 30 strokes of a Dounce homogenizer and centrifuged at 15000×g for 15 min ax 4° C. The protein concentration of mitochondria or cytosolic extracts was determined by Bradford method (Bio-Rad). For isolation of nuclei, cells were washed twice in ice-cold PBS, resuspended in 10 volumes of buffer C (10 mM PIPES, pH 7.4, 10 mM KCl, 2 mM MgCl2, 1 mM DDT, 1 mM PMSF, 10 μM cytochalasin B), allowed to swell on ice for 20 min and homogenized using a Teflon homogenizer. Homogenates were layered over 30% sucrose in buffer C and centrifuged at 800 g for 10 min. The resulting nuclear pellets were resuspended in buffer C and washed three times. Nuclei were scored at −80° C. in aliquots of 10^8 nuclei/ml until required. AIF-containing mitochondrial supernatant was prepared as described in Susin et aL, 1997, J. Exp. Med. 186, 5-37 and Susin et al., 1996, J. Exp. Med. 184, 1331-41.
Mitochondria (5×10^5/ml) were treated with 10 μg/ml betulinic acid for 30 min, incubated with 3,3′-dihexyloxacarbocyanide iodide (DiOC6(3), 40 nM, Molecular Probes, Inc., Eugene, Oreg.) for 15 min at 37° C. and analyzed on a flow cytometer (FACS Vantage, Becton Dickinson). As a control, cells were treated with the uncoupling agent carbonyl cyanide m-chlorophenylhydrazone (mCICCP, 200 μM, Sigma).

The test system of assay [2] is SH-EP neuroblastoma cells. Kind of assay: Specific apoptosis, FACS analysis of propidium iodide-stained nuclei. To be noted: 10 μg/ml antibody fragments 1 h before drug; 10 μg/ml betulinic acid, 50 μg/ml VP-16, 10 μg/ml cisplatinum, 0.5 μg/ml doxorubicin, 72 h; FIG. 3B. In kind it is cell-based, human. As for the experimental part:
Quantification of DNA fragmentation was performed by FACS analysis of propidium iodide stained nuclei as described in Nicoletti et al, 1991, J. Immunol. Methods. 139: 271-279. Cells were analyzed for DNA content by flow. cytometry (FACScan, Becton Dickinson, Heidelberg, Germany) using CELLQuest software. Early apoptotic changes were identified by staining with biotinylated annexin V (Bender Med Systems, Vienna, Austria) following the manufacturer's instructions. Annexin V binds to exposed phosphatidylserine on the surface of apoptotic cells. Koopman et al, 1994, Blood. 84:1415-1420. Cells were analyzed by flow cytometry (FAC-Scan. Becton Dickinson) using CELLQuest software.
Cells were treated with 10 μg/ml betulinic acid for 72 h. Apoptosis was assessed by FACS analysis of propidium iodide-stained nuclei. Percentage of specific apoptosis was calculated as follows: experimental apoptosis (%) −spontaneous apoptosis in medium (%)/[100%−spontaneous apoptosis in medium (%)]×100%. […]
Cells were incubated for indicated times with doxorubicin, betulinic acid or anti-APO-1 and harvested by trypsinization using 0.05% trypsin and 0.02% EDTA without Ca^2+and Mg^2+(Life Technologies, Inc.). Quantification of DNA fragmentation was performed by FACS analysis of propidium iodide stained nuclei as previously described in Nicoletti et al., J. ImmunoL Methods 139:271-279, using CELLQuest software (Becton Dickinson, Heidelberg, Germany).
(§1) SHEP cells transfected with Bcl-2 or BCl-XL or a neomycin resistance vector only (Neo) were treated with 0.5 μg/ml Doxorubicin or 10 μg/ml Betulinic acid for 48 h (A) or 24 h (B and C). Cells transfected with a neomycin resistance vector only (Neo) were treated in the presence or absence of 50 μm BA or 60 μm zVAD-fmk. Nuclear apoptosis was determined by FACS analysis or propidium iodide-stained DNA content in intact cells (A) or in a CFS incubating isolated nuclei with mitochondria from cells treated with Doxo or betulinic acid (C). ΔΨm was determined by staining cells with the potential-sensitive fluorochrome DiOC6(3) (B).

In assay [3] the test system is isolated nuclei with mitochondria from SHEP cells. The experiment in a line: Cell-free system of apoptosis: nuclear fragmentation of isolated nuclei. It is filed as biochemical, human. To be noted: for nuclear DNA fragmentation, mitochondria plus nuclei plus drug: Neo control mitochondria, 0.1-10 μg/ml betulinic acid or 5 mM atractyloside, 6 h, FIG. 8A, 8B. As for the experimental part: (§2) For determination of nuclear fragmentation, nuclei (10^3/μl) were incubated with mitochondria (1 μg/μl) in buffer D (10 mM HEPES, pH 7.4, 50 mM NaCl, 2 mM MgCl2, 5 mM EGTA, 1 mM DDT, 2 mM ATP, 10 mM phosphocreatine, 50 μg/ml creatine kinase, 10 μM cytochalasin B) for 2 h at 37° C. Nuclei were stained with propidium iodide ([…]) and analyzed by flow cytometry. For determination of caspase activation, cytosolic extracts (2 μg/μl) were incubated with mitochondria (1 μg/μl), cytochrome c (0.1-100 μM) or AIF-containing mitochondrial supernatant (0.5 μg/μl) in buffer D for 2 h at 37° C. Partially purified AIF (cytochrome c-free) was prepared as previously described (0.5 mg/ml, Susin et al., 1997, J. Exp. Med. 186, 5-37; Susin et al., 1996, J. Exp. Med. 184, 1331-41). Proteins were separated by 15% SDS-PAGE and Western blot analysis was performed as described above.
Mitochondria isolated from SHEP cells, transfected with bcl-2 or bcl-XL or a neomycin resistance vector only, were incubated for 6 h with nuclei and 0.1-10 μg/ml betulinic acid (FIG. 8A) or 5 mM atractyloside (FIG. 8B) in the presence or absence of 50 μM bongkrekic acid or 60 μMZ-VAD-fnk. Nuclei incubated with either mitochondria from vector only cells or with betulinic acid were used as control. Nuclear apoptosis was determined by FACS analysis of propidium iodide stained DNA content.
SHEP cells transfected with bcl-2 or bcl-XL or a neomycin resistance vector only were treated with 10 μg/ml betulinic acid or 5 mM atractyloside for 6-24 h (FIG. 8C). Mitochondria were isolated and incubated with nuclei in the presence or absence of 50 μM bongkrekic acid or 60 μMZ-VAD-fmk. Nuclei incubated with either mitochondria front vector only cells or with betulinic acid were used as control. Nuclear apoptosis was determined by FACS analysis of propidium iodide stained DNA content.
Mitochondria isolated from SHEP cells transfected with bcl-2, Bcl-XL or a neomycin resistance vector only were treated with 10 μg/ml betulinic acid or 5 mM atractyloside for 0.5 h in the presence or absence of 50 μM bongkrekic acid or 60 μM zVAD-fmk. Mitochondrial supernatants obtained by high speed centrifugation were incubated with nuclei for 2 h at 37° C. Nuclei incubated with supernatants of untreated mitochondria were used as control.. Nuclear apoptosis was determined by FACS analysis of propidium iodide stained DNA content.
as §2, with “cytometry (Susin et al., 1997 Exp. Cell Res. 236:397-403).” for “cytometry.”, “(10” for “(0.1-100”, “C.” for “C. Partially purified AIF (cytochrome c-free) was prepared as previously described (0.5 mg/ml, Susin et al., 1997, J. Exp. Med. 186, 5-37; Susin et al., 1996, J. Exp. Med. 184, 1331-41).”, “before.” for “above.”
as §1

In assay [4] the test system is caspase-3, caspase-8 and PARP in cytosolic extracts of SHEP cells. Kind of assay: Cell-free system of apoptosis: cleavage of caspases in cytosolic extracts by mitochondria. It is filed as biochemical, human. On the procedure:
as §2, with “above. To confirm equal loading of mitochondrial protein, all Western blots were also developed with an antibody directed against a 60 kDa mitochondrial antigen (data not shown).” for “above.”
SHEP cells transfected with bcl-2 or Bcl-XL or a neomycin resistance vector only were treated with 10 μg/ml betulinic acid for 16 h. Mitochondria were isolated and incubated with cytosolic extracts for 6 h in the presence or absence of 60 μM zVAD-fmk (left panel, cells). Alternatively, mitochondria isolated from untreated cells were incubated with 10 μg/ml betulinic acid or 5 mM atractyloside together with cytosolic extracts for 6 h in the presence or absence of 60 μMZ-VAD-fmk (right panel, mitos, Atra). Cytosolic extracts incubated with mitochondria isolated from untreated cells or with untreated mitochondria were used as control. 40 μg protein per lane isolated front cell lysates were separated by 15% SDS-PAGE. Immunodetection of caspases-3, -8 and PARP protein was performed by mouse anti-caspase-3 mAb, mouse anti-caspase-8 mAb, rabbit anti-PARP polyclonal antibody and ECL.
SHEP cells treated with 10 μg/ml betulinic acid for indicated times. Mitochondria were isolated and incubated with cytosolic extracts for 6 h. Western blot analysis was performed as described above.
Mitochondria isolated from SHEP cells transfected with bcl-2 or Bcl-XL or a neomycrn resistance vector only were treated with 10 μg/ml betulinic acid or 5 mM atractyloside for 0.5 h in the presence or absence of 50 μM bongkrekic acid or 60 μM zVAD-fmk. Mitochondrial supernatants obtained by high speed centrifugation were incubated with cytosolic extracts for 6 h at 37° C. Cytosolic extracts incubated with supernatants of untreated mitochondria were used as control. Western blot analysis was performed as described for FIG. 9A.
as §2, with “cytometry (Susin et al., 1997 Exp. Cell Res. 236:397-403).” for “cytometry.”, “(10” for “(0.1-100”, “C.” for “C. Partially purified AIF (cytochrome c-free) was prepared as previously described (0.5 mg/ml, Susin et al., 1997, J. Exp. Med. 186, 5-37; Susin et al., 1996, J. Exp. Med. 184, 1331-41).”, “before.” for “above.”
SHEP cells transfected with Bcl-2 or Bcl-XL or a neomycin resistance vector only (Neo) were treated (Lanes+) with 0.5 μg/ml Doxo or 10 μg/ml Bet A for 16 h. Mitochondria were isolated and incubated with cytosolic extracts for 6 h. in the presence or absence of 60 μm Z-VAD.fmk. Western blot analysis was performed as described in FIG. 14A.

In the case of `COc1cc([C@@H]2c3cc4c(cc3[C@@H](O[C@@H]3O[C@@H]5CO[C@@H](C)O[C@H]5[C@H](O)[C@H]3O)[C@H]3COC(=O)[C@H]23)OCO4)cc(OC)c1O` [VP-16, etoposide], in assay [1], the “Δψm of isolated mitochondria” value is given as “did not induce mitochondrial perturbations”. In addition, the “effect of CD95 blockage by F(ab′)2 anti-APO-1 on drug-induced apoptosis” value in assay [2] is recorded as “markedly reduced”. Further, in assay [3], the “nuclear DNA fragmentation, mitochondria plus nuclei plus drug” value (shortened to “nuclear DNA fragmentation”) is “No DNA fragmentation was observed”.

Regarding `C=C1[C@@H]2CC[C@H]3[C@]4(C)C[C@H](O[C@@H]5O[C@H](CO)[C@@H](OS(=O)(=O)O)[C@H](OS(=O)(=O)O)[C@H]5OC(=O)CC(C)C)C[C@@H](C(=O)O)[C@H]4CC[C@]3(C2)[C@H]1O` [atractyloside], in assay [4] (10 μg/ml betulinic acid or 5 mM atractyloside 0.5 h, extracts 6 h, FIG. 10A), the “caspase cleavage in cytosolic extracts by supernatants from treated mitochondria” value is “caspase activation and nuclear fragmentation were observed”. Further, the “caspase cleavage in cytosolic extracts by treated isolated mitochondria” value in assay [4] (10 μg/ml betulinic acid or 5 mM atractyloside, 6 h, FIG. 9A) is “led to activation of caspases”. Further, the “DNA fragmentation by supernatants from treated mitochondria” value in assay [3] (10 μg/ml betulinic acid or 5 mM atractyloside 0.5 h, supernatant with nuclei 2 h, FIG. 10B) was “caspase activation and nuclear fragmentation were observed”. The “nuclear DNA fragmentation” value in assay [3] was “had the same effect as betulinic acid”.

As for `N.N.[Cl][Pt][Cl]` [cisplatinum], in assay [1], the “Δψm of isolated mitochondria” value is on record as “did not induce mitochondrial perturbations”. Also, in assay [2], the “effect of CD95 blockage by F(ab′)2 anti-APO-1 on drug-induced apoptosis” value was “markedly reduced”. Further, the “nuclear DNA fragmentation” value in assay [3] is on record as “No DNA fragmentation was observed”.
